Test results as given in article PMC6161789, “Modeling and antitumor studies of a modified L–penetratin peptide targeting E2F in lung cancer and prostate cancer” (Oncotarget, 2018).
Ends that are not written are not given here.

How the values were obtained:
DU145 cells = test: Stability testing of the peptide in RPMI 1640 with 10% FBS, read out by DU145 cell viability; assay type: in vitro ADME, human; settings: pre-incubation in RPMI 1640 with 10% FBS, 37°C, 24 hours; then 24 hours on DU145 cells, MTS 490 nm, triplicate
Experimental: Figure 4 A. D- Arg Peptide incubated in 10% FBS RPMI media at 37°C for 24 hours is resistant to proteolysis; it is as effective as the non-incubated D- Arg Peptide in DU145 cells. D- Arg Peptide was incubated in RPMI media containing 10% FBS at 37°C for 24 hours. DU145 cells were seeded in a 96 well plate at 5000 cells in each well. After 24 hours either the incubated D- Arg Peptide or the non-incubated D- Arg Peptide was added to the cells. B. D- Arg and L-Arg Peptide incubated in 10% FBS RPMI media at 37°C for 24 hours. DU145 cells were seeded in a 96 well plate at 5000 cells in each well. After 24 hours either the incubated D- Arg Peptide or the L- Arg Peptide was added to the cells. The cell viability in both experiments were assessed after another 24 hours by measuring the absorption at 490nm using the MTS tetrazolium Promega CellTitre 96® Aqueous One Solution Cell proliferation assay according to the manufacturer’s instructions. Each time point was done in triplicate and values are represented by mean with standard mean deviation.
The peptide was mixed with the RPMI 1640 medium containing 10% FBS and incubated at 37 °C for 24 hours. Cells were plated in a 96 well plate in 180 μl of the media containing 10% FBS. After 24 hours, 20 μl of either the incubated D- Arg or the regular (fresh) D- Arg Peptide was added to the cell plate and tested after another 24 hours. Then 20 μl of the MTS tetrazolium Promega CellTitre 96® Aqueous One Solution Cell Proliferation Assay was added to each well and incubated for two to three hours. Absorbance was measured at 490 nm as per the manufacturer’s protocol to determine the cell viability.

Burkitt lymphoma cells = settings: cited from earlier work
Description: (§1) This unique E2F1 inhibitory peptide with the sequence His-His-His-Arg-Leu-Ser-His, found by phage display, was discovered by its ability to bind tightly to an immobilized consensus E2F1 promoter sequence. Importantly, treatment of tumor xenografts of human small cell lung cancer H69 and human prostate cancer DU14 ...

[1] = tested on: DU145 prostate cancer cells; settings: cited from earlier work
Description: as §1

[2] = tested on: pRB negative small cell lung cancer (SCLC) cells; settings: cited from earlier work
Description: as §1

[3] = tested on: consensus E2F1 promoter sequence; settings: found by phage display; cited from earlier work
Description: as §1

| Compound | Stability in serum: incubated D- Arg versus incubated L- Arg peptide (DU145 cells) | Cytotoxicity (Burkitt lymphoma cells) | Cytotoxicity [1] | Cytotoxicity [2] | Stability: toxicity of pre-incubated versus fresh non-incubated peptide (DU145 cells) | Binding to immobilized consensus E2F1 promoter sequence [3] |
| --- | --- | --- | --- | --- | --- | --- |
| CC[C@H](C)[C@H](NC(=O)[C@H](CCCCN)NC(=O)[C@@H](NC(=O)[C@H](CCC(N)=O)NC(=O)[C@@H](N)CCCNC(=N)N)[C@@H](C)CC)C(=O)N[C@@H](Cc1c[nH]c2ccccc12)C(=O)N[C@@H](Cc1ccccc1)C(=O)N[C@@H](CCC(N)=O)C(=O)N[C@@H](CC(N)=O)C(=O)N[C@@H](CCCNC(=N)N)C(=O)N[C@@H](CCCNC(=N)N)C(=O)N[C@@H](CCSC)C(=O)N[C@@H](CCCCN)C(=O)N[C@@H](Cc1c[nH]c2ccccc12)C(=O)N[C@@H](CCCCN)C(=O)N[C@@H](CCCCN)C(=O)N[C@@H](Cc1c[nH]cn1)C(=O)N[C@@H](Cc1c[nH]cn1)C(=O)N[C@@H](Cc1c[nH]cn1)C(=O)N[C@@H](CCCNC(=N)N)C(=O)N[C@@H](CC(C)C)C(=O)N[C@@H](CO)C(=O)N[C@@H](Cc1c[nH]cn1)C(=O)O [L-Arg PEP] | unstable in serum | cytotoxic at low micro molar concentrations | cytotoxic at low micro molar concentrations | cytotoxic at low micro molar concentrations |  |  |
| CC[C@H](C)[C@H](NC(=O)[C@H](CCCCN)NC(=O)[C@@H](NC(=O)[C@H](CCC(N)=O)NC(=O)[C@@H](N)CCCNC(=N)N)[C@@H](C)CC)C(=O)N[C@@H](Cc1c[nH]c2ccccc12)C(=O)N[C@@H](Cc1ccccc1)C(=O)N[C@@H](CCC(N)=O)C(=O)N[C@@H](CC(N)=O)C(=O)N[C@@H](CCCNC(=N)N)C(=O)N[C@@H](CCCNC(=N)N)C(=O)N[C@@H](CCSC)C(=O)N[C@@H](CCCCN)C(=O)N[C@@H](Cc1c[nH]c2ccccc12)C(=O)N[C@@H](CCCCN)C(=O)N[C@@H](CCCCN)C(=O)N[C@@H](Cc1c[nH]cn1)C(=O)N[C@@H](Cc1c[nH]cn1)C(=O)N[C@@H](Cc1c[nH]cn1)C(=O)N[C@H](CCCNC(=N)N)C(=O)N[C@@H](CC(C)C)C(=O)N[C@@H](CO)C(=O)N[C@@H](Cc1c[nH]cn1)C(=O)O [D-Arg PEP] | more resistant to proteolysis after pre-incubation in serum |  |  |  | as potent as the non-incubated fresh D- Arg PEP |  |
| HHHRLSH [E2F1 inhibitory peptide, 7-mer peptide His-His-His-Arg-Leu-Ser-His found by phage display] |  |  |  |  |  | bind tightly |
